Test results from article PMC12530851, “Design, synthesis, and apoptotic antiproliferative activity of novel dihydropyrimidine-5-carbonitrile/1,2,4-oxadiazole hybrids as dual EGFR/VEGFR-2 inhibitors endowed with antioxidant activity” (RSC Advances, 2025).

Assays:
[1] = system: four human cancer cell lines (A-549, MCF-7, Panc-1, HT-29); experiment: Antiproliferative assay, average over four cancer cell lines; assay type: cell-based; conditions: for GI50: Homo sapiens, average IC50 across A-549, MCF-7, Panc-1, HT-29; for Reduction in antiproliferative potency relative to 10k (GI50): less potent than 10k
Protocol: The given findings were obtained from at least two distinct studies, each comprising three repeats per concentration. Appendix A (SI File) provides experimental details.[38,39] […]
(§1) 4.2.2. Assay for antiproliferative effect
To explore the antiproliferative potential of compounds propidium iodide fluorescence assay was performed using different cell lines such as Panc-1 (pancreas cancer cell line), MCF-7 (breast […]
respectively. To calculate the total nuclear DNA, a fluorescent dye (propidium iodide, PI) is used which can attach to the DNA, thus offering a quick and precise technique. PI cannot pass through the cell membrane and its signal intensity can be considered as directly proportional to quantity of cellular DNA. Cells whose cell membranes are damaged or have changed permeability are counted as dead ones. The assay was performed by seeding the cells of different cell lines at a density of 3000-7500 cells/well (in 200μl medium) in culture plates followed by incubation for 24h at 37 °C […]
The medium was removed; the compounds were added to the plates at 10 μM concentrations (in 0.1% DMSO) in triplicates, followed by incubation for 48h. DMSO (0.1%) was used as control. After incubation, medium was removed followed by the addition of PI (25 μl, 50μg/mL in water/medium) to each well of the plates. At - 80 °C, the plates were allowed to freeze for 24 h, followed by thawing at 25 °C. A fluorometer (Polar-Star BMG Tech) was used to record the readings at excitation and emission wavelengths of 530 and 620 nm for each well. The percentage cytotoxicity of compounds was calculated using […]
Where ATC= Absorbance of treated cells and AC= Absorbance of control. […]
positive control in the assay. […]

[2] = system: MCF-7 (breast cancer); experiment: Antiproliferative assay, MCF-7; assay type: cell-based, human; conditions: Homo sapiens, MCF7; MCF-7 breast cancer cells; read-out: Antiproliferative activity IC50 ± SEM, MCF-7
Description: (§2) The dose–response experiments established the IC50 values for the new compounds. The given findings were obtained from at least two distinct studies, each comprising three repeats per concentration. Appendix A (SI File) provides experimental details.[38,39]
(§3) The MTT assay[43] was utilized to assess the antiproliferative effects of compounds 10a–l on four human cancer cell lines: HT-29 (colon cancer), Panc-1 (pancreatic cancer), A-549 (lung cancer), and MCF-7 (breast cancer). […]
as §1
(§4) To explore the antiproliferative potential of compounds propidium iodide fluorescence assay was performed using different cell lines such as Panc-1 (pancreas cancer cell line), MCF-7 (breast cancer cell line), HT-29 (colon cancer cell line) and A-549 (epithelial cancer cell line), respectively. To calculate the total nuclear DNA, a fluorescent dye (propidium iodide, PI) is used which can attach to the DNA, thus offering a quick and precise technique. PI cannot pass through the cell membrane and its signal intensity can be considered as directly proportional to quantity of cellular DNA. Cells whose cell membranes are damaged or have changed permeability are counted as dead ones. The assay was performed by seeding the cells of different cell lines at a density of 3000-7500 cells/well (in 200μl medium) in culture plates followed by incubation for 24h at 37 °C in humidified 5%CO2/95% air atmospheric conditions. The medium was removed; the compounds were added to the plates at 10 μM concentrations (in 0.1% DMSO) in triplicates, followed by incubation for 48h. DMSO (0.1%) was used as control. After incubation, medium was removed followed by the addition of PI (25 μl, 50μg/mL in water/medium) to each well of the plates. At - 80 °C, the plates were allowed to freeze for 24 h, followed by thawing at 25 °C. A fluorometer (Polar-Star BMG Tech) was used to record the readings at excitation and emission wavelengths of 530 and 620 nm for each well. The percentage cytotoxicity of compounds was calculated using […]
(§5) Where ATC= Absorbance of treated cells and AC= Absorbance of control. Erlotinib was used as positive control in the assay. […]

[3] = Cell viability assay (MTT) on normal MCF-10A cells; assay type: cell-based; conditions: human, MCF-10A mammary gland epithelial cells (normal cell line), MCF-10A normal cells, four-day incubation
Protocol: The impact of novel compounds 10a–l on the viability of a normal human cell line, specifically human mammary gland epithelial cells (MCF-10A), was assessed to ascertain the safety of the newly synthesized compounds. The MTT test was employed to assess the cell viability of the novel compounds after a four-day incubation with MCF-10A cells.[29,37] Refer to Appendix A for more experimental details.
The effect of new compounds 10a–l on the viability of a normal human cell line, namely human mammary gland epithelial cells (MCF-10A), was evaluated to determine the safety of the newly synthesized compounds.
4.2. Biological evaluation
4.2.1 Cell Viability assay (MTT assay)
MTT assay was performed to investigate the effect of the synthesized compounds on mammary epithelial cells (MCF-10A). The cells were propagated in medium consisting of Ham's F-12 medium/ Dulbecco's modified Eagle's medium (DMEM) (1:1) supplemented with 10% foetal calf serum, 2 mM glutamine, insulin (10 μg/mL), hydrocortisone (500 ng/mL) and epidermal growth factor (20 ng/mL). Trypsin ethylenediamine tetra acetic acid (EDTA) was used to passage the cells after every 2-3 days. 96-well flat-bottomed cell culture plates were used to seed the cells at a density of 10^4 cells mL-1. The medium was aspirated from all the wells of culture plates after 24 h followed by the addition of synthesized compounds (in 200 μL medium to yield a final concentration of 0.1% (v/v) dimethyl sulfoxide) into individual wells of the plates. Four wells were designated to a single compound. The plates were allowed to incubate at 37°C for 96 h. Afterwards, the medium was aspirated and 3-[4,5-dimethylthiazol-2-yl]-2,5-diphenyltetrazolium bromide (MTT) (0.4 mg/mL) in medium was added to each well and subsequently incubated for 3 h. The medium was aspirated and 150 μL dimethyl sulfoxide (DMSO) was added to each well. The plates were vortexed followed by the measurement of absorbance at 540 nm on a microplate reader. […]

[4] = system: A-549 (lung cancer); experiment: Antiproliferative assay, A-549; assay type: cell-based; conditions: Homo sapiens, A549; A-549 lung cancer cells; read-out: Antiproliferative activity IC50 ± SEM, A-549
Description: as §2, §3, §1, §4, §5

[5] = system: Panc-1 (pancreatic cancer); experiment: Antiproliferative assay, Panc-1; assay type: cell-based; conditions: Homo sapiens; Panc-1 pancreatic cancer cells; read-out: Antiproliferative activity IC50 ± SEM, Panc-1
Description: as §2, §3, §1, §4, §5

[6] = system: HT-29 (colon cancer); experiment: Antiproliferative assay, HT-29; assay type: cell-based; conditions: Homo sapiens; HT-29 colon cancer cells; read-out: Antiproliferative activity IC50 ± SEM, HT-29
Description: as §2, §3, §1, §4, §5

[7] = biological target: VEGFR-2 (Homo sapiens, UniProt P35968); experiment: VEGFR-2 inhibitory assay
Protocol: The majority of signals detected by antiphosphotyrosine antibody were from EGFR because the enzyme preparation contained low impurities.
Prepare all the solutions using autoclaved, deionized water and analytical grade reagents. Prepare
and store all the reagents at room temperature (unless indicated otherwise). EDTA solution (0.5
M, pH 8.0): add 95 mL ultra-pure water to 14.612 g EDTA, adjust the pH to 8.0 using NaOH
solution, add 5 mL ultra-pure water; 1×Kinase Assay Buffer: add 25 mL HEPES solution (1 M),
water, adjust pH to 7.5 and constant volume to 500 mL using ultrapure water; 4×Stop solution (40
mM): Mix 0.8 mL of the foregoing EDTA solution, 1 mL 10×Detection Buffer and 8.2 mL ultra-
pure water; 1×Detection Buffer: Mix 1 mL 10×Detection Buffer with 9 mL water; 4×VEGFR
μM) was added to 624 μL 1×Kinase Assay Buffer and mixed; 4×ULight™-labeled JAK1
concentration 5 μM) was added to 576 μL 1×Kinase Assay Buffer and mixed; 4×ATP Solution
2×substrate/ATP Mix: 560 μL foregoing 4×ULight™-labeled JAK1 and 560 μL 4×ATP solution
and mixed (prepared before use). The assays used an ULight-labeled peptide substrate and a
Europium-W1024-labeled antiphosphotyrosine antibody. The VEGFR-2 was purchased from
Carna Biosciences, Inc. (New York, USA). The 384-well plates were obtained from PerkinElmer.
Compounds were dissolved in DMSO and diluted to 11 concentrations at a tripling rate from 2.500
5 μL 2×VEGFR-2 kinase solution (0.5 nM)
was added to 384-well plates homogeneous mixing and pre-reaction at room temperature for 30
min. Next, 2.5 μL 4×Ultra ULightTM-JAK-1(Tyr1023) Peptide (200 nM)/ATP (40 μM) was
added to the corresponding wells of a 384-well plate. Negative control: 2.5 μL/well 4×substrate/ATP mixture and 7.5 μL 1×kinase assay buffer in 384-well plate well. Positive control:
μL/well 2×VEGFR-2 kinase solution was added to the 384-well plate, The final concentration of DMSO in the mixing system was 4%. After incubation at room temperature and dark for 60 min, 5 μL 4×stop solution was added to corresponding wells to react for 5 min and then 5 μL 4×detection mix was added to the corresponding wells of a 384-well plate. The mixture was centrifugally mixed and stayed for 60 min at room temperature for color development. The plate
was read using an Envision plate reader. The inhibition rate (%) = (positive well reading-
compound well reading)/(positive well reading-negative well reading)×100. The corresponding IC50 values were calculated using GraphPad Prism 5.0.

[8] = biological target: EGFR (Homo sapiens, UniProt P00533); experiment: EGFR inhibitory assay (EGFR-TK test)
Protocol: Baculoviral expression vectors including pBlueBacHis2B and pFASTBacHTc were used
5ʹ upstream to the EGFR sequence comprised a sequence that encoded (His)6. Sf-9 cells were infected for 72h for protein expression. The pellets of Sf-9 cells were solubilized in a buffer containing sodium vanadate (100 μM), aprotinin (10 μg/mL), triton (1%), HEPES
buffer(50mM), ammonium molybdate (10 μM), benzamidine HCl (16 μg/mL), NaCl (10 mM),leupeptin (10 μg/mL) and pepstatin (10 μg/mL) at 0°C for 20 min at pH 7.4, followed by centrifugation for 20 min. To eliminate the nonspecifically bound material, a Ni-NTA super flow packed column was used to pass through and wash the crude extract supernatant first with 10mM and then with 100 mM imidazole. Histidine-linked proteins were first eluted with 250 and then with 500 mM imidazole subsequent to dialysis against NaCl (50 mM), HEPES (20 mM), glycerol (10%) and 1 μg/mL each of aprotinin, leupeptin and pepstatin for 120 min. The purification was performed either at 4 °C or on ice. To record autophosphorylation level, EGFR kinase assay was carried out on the basis of DELFIA/Time-Resolved Fluorometry. The compounds were first
dissolved in DMSO absolute, subsequent to dilution to appropriate concentration using HEPES
(25 mM) at pH 7.4. Each compound (10 μL) was incubated with recombinant enzyme (10 μL, 5
ng for EGFR, 1:80 dilution in 100 mM HEPES) for 10 min at 25 °C, subsequent to the addition of
5X buffer (10 μL, containing 2 mM MnCl2, 100 μM Na3VO4, 20 mM HEPES and 1 mM DTT)
and ATP-MgCl2 (20 μL, containing 0.1 mM ATP and 50 mM MgCl2) and incubation for 1h. The
negative and positive controls were included in each plate by the incubation of enzyme either with
or without ATP-MgCl2. The liquid was removed after incubation and the plates were washed
thrice using a wash buffer. The Europium-tagged antiphosphotyrosine antibody (75 μL, 400 ng)
was added to each well followed by incubation of 1h and then washing of the plates using buffer.
The enhancement solution was added to each well and the signal was recorded at excitation and
The autophosphorylation percentage inhibition by compounds was calculated using the following equation:
calculated. The majority of signals detected by antiphosphotyrosine antibody were from EGFR because the enzyme preparation contained low impurities.

[9] = system: caspase-9; experiment: Caspase-9 activation assay in MCF-7 cells; assay type: cell-based, human
Protocol: (§6) Compounds10k and 10l were tested as caspases-3, 8, 9, Bax and p53 activators and as down-regulators of the anti-apoptotic protein Bcl2 against the MCF-7 breast cancer cell line.[41] Appendix A gives more details.
(§7) To elucidate the apoptotic processes of compounds 10k and 10l, whether via the intrinsic or extrinsic pathway, their impacts on caspase-8 and caspase-9 were evaluated. […] This signifies the activation of both intrinsic and extrinsic pathways (Table 5).
(§8) 4.2.6. Caspase-8/9 activation assay
(§9) Cells were obtained from American Type Culture Collection, cells were grown in RPMI 1640 containing 10% fetal bovine serum at 37°C, stimulated with the compounds to be tested for caspase 8/9, and lysed with Cell Extraction Buffer. This lysate was diluted in Standard Diluent Buffer over the range of the assay and measured for human active caspase-8/9 content. (Cells are Plated in a density of 1.2 – 1.8 × 10,000 cells/well in a volume of 100µl complete growth medium + 100 ul of the tested compound per well in a 96-well plate for 24 hours before the enzyme assay). The absorbance of each microwell was read on a spectro-photometer at 450 nm. […]

[10] = system: caspase-8; experiment: Caspase-8 activation assay in MCF-7 cells; assay type: cell-based, human
Protocol: as §6, §7, §8, §9

[11] = system: caspase-3; experiment: Caspase-3 activation assay in MCF-7 cells; assay type: cell-based, human; conditions: vs untreated control

Chain of EGFR (P00533 669-1210): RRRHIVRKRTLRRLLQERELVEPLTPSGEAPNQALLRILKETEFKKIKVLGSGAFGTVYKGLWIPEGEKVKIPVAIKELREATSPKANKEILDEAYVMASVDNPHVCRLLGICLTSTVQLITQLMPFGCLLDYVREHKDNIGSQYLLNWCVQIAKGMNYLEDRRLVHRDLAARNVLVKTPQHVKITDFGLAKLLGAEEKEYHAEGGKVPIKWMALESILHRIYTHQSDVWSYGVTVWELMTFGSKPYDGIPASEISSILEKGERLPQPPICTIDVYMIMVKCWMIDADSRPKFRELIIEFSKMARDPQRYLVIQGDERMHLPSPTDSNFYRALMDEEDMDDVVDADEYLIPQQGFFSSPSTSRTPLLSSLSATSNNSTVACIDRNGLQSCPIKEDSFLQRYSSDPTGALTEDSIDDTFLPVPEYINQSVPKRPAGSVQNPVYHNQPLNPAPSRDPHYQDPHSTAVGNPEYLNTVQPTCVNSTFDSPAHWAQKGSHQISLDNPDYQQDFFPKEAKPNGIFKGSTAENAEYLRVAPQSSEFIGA
Chain of VEGFR-2 (P35968 20-1356): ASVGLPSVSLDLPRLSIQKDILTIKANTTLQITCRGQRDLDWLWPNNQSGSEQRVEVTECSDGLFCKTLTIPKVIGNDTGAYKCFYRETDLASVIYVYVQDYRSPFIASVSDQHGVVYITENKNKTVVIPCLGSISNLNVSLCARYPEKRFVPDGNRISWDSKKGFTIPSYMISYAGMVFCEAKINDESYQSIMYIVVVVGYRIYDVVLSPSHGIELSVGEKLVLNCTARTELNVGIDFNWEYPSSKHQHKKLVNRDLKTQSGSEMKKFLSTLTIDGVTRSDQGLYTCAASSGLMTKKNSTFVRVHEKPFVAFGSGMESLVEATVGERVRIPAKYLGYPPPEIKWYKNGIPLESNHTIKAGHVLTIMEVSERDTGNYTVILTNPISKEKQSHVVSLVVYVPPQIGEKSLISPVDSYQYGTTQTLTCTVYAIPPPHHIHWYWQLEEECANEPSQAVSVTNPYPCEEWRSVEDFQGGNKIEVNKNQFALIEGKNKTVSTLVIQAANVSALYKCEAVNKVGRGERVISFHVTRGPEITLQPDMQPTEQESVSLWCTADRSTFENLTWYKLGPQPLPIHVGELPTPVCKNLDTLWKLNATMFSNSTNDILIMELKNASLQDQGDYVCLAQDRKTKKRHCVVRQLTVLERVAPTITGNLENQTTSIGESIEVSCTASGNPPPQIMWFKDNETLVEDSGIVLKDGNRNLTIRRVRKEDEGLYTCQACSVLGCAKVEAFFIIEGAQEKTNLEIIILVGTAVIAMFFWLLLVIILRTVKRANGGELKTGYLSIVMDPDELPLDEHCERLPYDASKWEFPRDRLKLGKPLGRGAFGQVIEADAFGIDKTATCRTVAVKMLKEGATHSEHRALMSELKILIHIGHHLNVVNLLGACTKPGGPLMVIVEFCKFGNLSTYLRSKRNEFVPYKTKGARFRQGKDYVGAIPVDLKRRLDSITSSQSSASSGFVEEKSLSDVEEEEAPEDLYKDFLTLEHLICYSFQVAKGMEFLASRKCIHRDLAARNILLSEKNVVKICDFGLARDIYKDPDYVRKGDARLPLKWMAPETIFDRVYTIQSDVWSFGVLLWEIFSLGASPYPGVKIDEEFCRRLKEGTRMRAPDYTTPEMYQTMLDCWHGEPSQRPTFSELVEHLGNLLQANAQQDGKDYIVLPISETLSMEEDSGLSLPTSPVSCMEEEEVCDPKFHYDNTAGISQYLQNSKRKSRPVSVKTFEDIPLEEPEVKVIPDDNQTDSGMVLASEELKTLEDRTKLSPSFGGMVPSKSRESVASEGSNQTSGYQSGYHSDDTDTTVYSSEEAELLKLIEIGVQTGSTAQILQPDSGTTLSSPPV

## N#Cc1c(-c2ccccc2)nc(SCc2nc(-c3ccccc3)no2)[nH]c1=O [Compound 10a, 2-(((3-Phenyl-1,2,4-oxadiazol-5-yl)methyl)thio)-6-oxo-4-phenyl-1,6-dihydropyrimidine-5-carbonitrile]
[1]
  GI50: 43 nM
[2]
  IC50: 40 ± 3 nM
[3]
  viability at 96 h, 50 µM: 91%
[4]
  IC50: 44 ± 3 nM
[5]
  IC50: 42 ± 3 nM
[6]
  IC50: 45 ± 3 nM

## N#Cc1c(-c2ccccc2)nc(SCc2nc(-c3ccc(Cl)cc3)no2)[nH]c1=O [Compound 10b, 2-(((3-(4-Chlorophenyl)-1,2,4-oxadiazol-5-yl)methyl)thio)-6-oxo-4-phenyl-1,6-dihydropyrimidine-5-carbonitrile]
[1]
  GI50: 63 nM
  Reduction in antiproliferative potency relative to 10k (GI50): 2.9 fold
[2]
  IC50: 61 ± 5 nM
[3]
  viability at 96 h, 50 µM: 90%
[4]
  IC50: 65 ± 5 nM
[5]
  IC50: 61 ± 5 nM
[6]
  IC50: 66 ± 5 nM

## COc1ccc(-c2noc(CSc3nc(-c4ccccc4)c(C#N)c(=O)[nH]3)n2)cc1 [Compound 10c, 2-(((3-(4-Methoxyphenyl)-1,2,4-oxadiazol-5-yl)methyl)thio)-6-oxo-4-phenyl-1,6-dihydropyrimidine-5-carbonitrile]
[1]
  GI50: 47 nM
[2]
  IC50: 44 ± 3 nM
[3]
  viability at 96 h, 50 µM: 92%
[4]
  IC50: 49 ± 3 nM
[5]
  IC50: 44 ± 3 nM
[6]
  IC50: 51 ± 3 nM

## N#Cc1c(-c2ccncc2)nc(SCc2nc(-c3ccccc3)no2)[nH]c1=O [Compound 10d, 2-(((3-Phenyl-1,2,4-oxadiazol-5-yl)methyl)thio)-6-oxo-4-(pyridin-4-yl)-1,6-dihydropyrimidine-5-carbonitrile]
[1]
  GI50: 54 nM
[2]
  IC50: 51 ± 4 nM
[3]
  viability at 96 h, 50 µM: 89%
[4]
  IC50: 56 ± 4 nM
[5]
  IC50: 53 ± 4 nM
[6]
  IC50: 57 ± 4 nM

## N#Cc1c(-c2ccncc2)nc(SCc2nc(-c3ccc(Cl)cc3)no2)[nH]c1=O [Compound 10e, 2-(((3-(4-Chlorophenyl)-1,2,4-oxadiazol-5-yl)methyl)thio)-6-oxo-4-(pyridin-4-yl)-1,6-dihydropyrimidine-5-carbonitrile]
[1]
  GI50: 28 nM
  Reduction in antiproliferative potency relative to 10k (GI50): 1.3 fold
[2]
  IC50: 25 ± 1 nM
[3]
  viability at 96 h, 50 µM: 90%
[4]
  IC50: 30 ± 2 nM
[5]
  IC50: 28 ± 1 nM
[7]
  IC50: 32 ± 2 nM
[6]
  IC50: 30 ± 2 nM
[8]
  IC50: 65 ± 4 nM

## COc1ccc(-c2noc(CSc3nc(-c4ccncc4)c(C#N)c(=O)[nH]3)n2)cc1 [Compound 10f, 2-(((3-(4-Methoxyphenyl)-1,2,4-oxadiazol-5-yl)methyl)thio)-6-oxo-4-(pyridin-4-yl)-1,6-dihydropyrimidine-5-carbonitrile]
[1]
  GI50: 51 nM
[2]
  IC50: 49 ± 3 nM
[3]
  viability at 96 h, 50 µM: 91%
[4]
  IC50: 52 ± 4 nM
[5]
  IC50: 50 ± 4 nM
[6]
  IC50: 54 ± 4 nM

## N#Cc1c(-c2ccc(Cl)cc2)nc(SCc2nc(-c3ccccc3)no2)[nH]c1=O [Compound 10g, 2-(((3-Phenyl-1,2,4-oxadiazol-5-yl)methyl)thio)-4-(4-chlorophenyl)-6-oxo-1,6-dihydropyrimidine-5-carbonitrile]
[1]
  GI50: 38 nM
[2]
  IC50: 35 ± 2 nM
[3]
  viability at 96 h, 50 µM: 90%
[4]
  IC50: 39 ± 2 nM
[5]
  IC50: 37 ± 2 nM
[6]
  IC50: 40 ± 2 nM

## COc1ccc(-c2nc(SCc3nc(-c4ccccc4)no3)[nH]c(=O)c2C#N)cc1 [Compound 10j, 2-(((3-Phenyl-1,2,4-oxadiazol-5-yl)methyl)thio)-4-(4-methoxyphenyl)-6-oxo-1,6-dihydropyrimidine-5-carbonitrile]
[1]
  GI50: 68 nM
  Reduction in antiproliferative potency relative to 10k (GI50): 3 fold
[2]
  IC50: 65 ± 5 nM
[3]
  viability at 96 h, 50 µM: 89%
[4]
  IC50: 69 ± 5 nM
[5]
  IC50: 68 ± 5 nM
[6]
  IC50: 70 ± 5 nM

## C#Cc1cccc(Nc2ncnc3cc(OCCOC)c(OCCOC)cc23)c1 [Erlotinib, reference compound]
[2]
  IC50: 40 ± 3 nM
[4]
  IC50: 30 ± 3 nM
[5]
  IC50: 30 ± 3 nM
[6]
  IC50: 30 ± 3 nM

## CN[C@@H]1C[C@H]2O[C@@](C)([C@@H]1OC)n1c3ccccc3c3c4c(c5c6ccccc6n2c5c31)C(=O)NC4 [Staurosporine, reference compound]
[9]
  Caspase-9 Conc: 20 ± 1 ng/mL
[9]; vs untreated control
  Caspase-9 Fold change: 20 fold
[10]
  Caspase-8 Conc: 1.90 ± 0.10 ng/mL
[10]; vs untreated control
  Caspase-8 Fold change: 19.00 fold
[11]
  Caspase-3 Fold change: 7.00 fold
